Reference: patent US10647675B2 (priority 2015, dated 2020)
Values after ≈ are worked out from the molar mass of the structure shown.

Legend:
[1] = tested on: Trichophyton rubrum KD-1130; assay: Antifungal activity evaluation test: minimum inhibitory concentration (MIC), broth dilution by reference to CLSI M38-A2; assay type: cell-based; conditions: KD1130, read-out: MIC (T. rubrum)
Outline: (§1)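 MIC read visually as lowest concentration inhibiting growth by at least 80% relative to control after 4 days at 35° C. Trichophyton strains inoculated at 2×10^3 cells/mL final in MOPS-buffered RPMI 1640 (pH 7.0); compounds as 2-fold DMSO series, CLSI M38-A2 basis.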

[2] = tested on: Trichophyton mentagrophytes SM-110; assay: as above; assay type: cell-based; conditions: SM110, read-out: MIC (T. menta.)
Outline: as §1

Row | MIC [1] | MIC [2] | SMILES
1 | ≤ 0.1 µg/mL | ≤ 0.1 µg/mL | COc1ccccc1-c1cncnc1Oc1ccc(Cl)cc1 [I-319, 4-(4-chlorophenoxy)-5-(2-methoxyphenyl)pyrimidine]
2 | ≤ 0.1 µg/mL | ≤ 0.1 µg/mL | CCOCC(C)(C)c1ccc(Oc2ncccc2-c2cccnc2OC)cc1 [I-388, 2-[4-(1-ethoxy-2-methylpropan-2-yl)phenoxy]-2′-methoxy-3,3′-bipyridine]
3 | 0.2 to 0.78 µg/mL (≈ 0.555 to 2.16 µM) | 1.56 to 6.25 µg/mL (≈ 4.33 to 17.3 µM) | COc1ccccc1-c1cc(C)cnc1Oc1ccc(C(F)(F)F)nc1 [I-66, 3-(2-methoxyphenyl)-5-methyl-2-{[6-(trifluoromethyl)pyridin-3-yl]oxy}pyridine]
4 | ≤ 0.1 µg/mL | ≤ 0.1 µg/mL | COc1ncccc1-c1cccnc1Oc1ccc2c(c1)CCC2 [I-270, 2-[(2,3-dihydro-1H-inden-5-yl)oxy]-2′-methoxy-3,3′-bipyridine]
5 | ≤ 0.1 µg/mL | ≤ 0.1 µg/mL | FC(F)(F)c1ccc(Oc2ncncc2-c2cccc3ccnn23)cc1 [I-332, 7-{4-[4-(trifluoromethyl)phenoxy]pyrimidin-5-yl}pyrazolo[1,5-a]pyridine]
6 | ≤ 0.1 µg/mL | ≤ 0.1 µg/mL | CCOC(=O)c1ccc(Oc2ncccc2-c2cnccc2Cl)cc1 [I-414]
7 | ≤ 0.1 µg/mL | ≤ 0.1 µg/mL | COc1cc(-c2cncnc2Oc2ccc(C(F)(F)F)nc2)c(F)cc1F [I-329, 5-(2,4-difluoro-5-methoxyphenyl)-4-{[6-(trifluoromethyl)pyridin-3-yl]oxy}pyrimidine]
8 | 0.2 to 0.78 µg/mL (≈ 0.524 to 2.05 µM) | ≤ 0.1 µg/mL | COC(=O)CN(C)c1ncc(Oc2ncccc2-c2cccnc2OC)cn1 [I-354, methyl 2-[(5-{[2′-methoxy-(3,3′-bipyridin)-2-yl]oxy}-pyrimidin-2-yl)(methyl)amino]acetate]
9 | ≤ 0.1 µg/mL | ≤ 0.1 µg/mL | Cc1ccncc1-c1cccnc1Oc1ccc(-n2cccn2)cc1 [I-433]
10 | 0.2 to 0.78 µg/mL (≈ 0.549 to 2.14 µM) | 0.2 to 0.78 µg/mL (≈ 0.549 to 2.14 µM) | COC(=O)CCc1ccc(Oc2ncccc2-c2cnccc2OC)cc1 [I-279, methyl 3-(4-{[4′-methoxy-3,3′-bipyridin-2-yl]oxy}phenyl)propionate]
11 | ≤ 0.1 µg/mL | ≤ 0.1 µg/mL | CSc1ccccc1-c1cccnc1Oc1ccc(C(F)(F)F)nc1 [I-14]
12 | ≤ 0.1 µg/mL | ≤ 0.1 µg/mL | c1cc(-c2cncnc2Oc2ccc3c(c2)CCC3)n2nccc2c1 [I-326, 7-{4-[(2,3-dihydro-1H-inden-5-yl)oxy]pyrimidin-5-yl}pyrazolo[1,5-a]pyridine]
13 | 0.2 to 0.78 µg/mL (≈ 0.651 to 2.54 µM) | 0.2 to 0.78 µg/mL (≈ 0.651 to 2.54 µM) | CCc1ccc(Oc2ncccc2-c2cccnc2OC)cn1 [I-126, 2-[(6-ethylpyridin-3-yl)oxy]-2′-methoxy-3,3′-bipyridine]
14 | ≤ 0.1 µg/mL | ≤ 0.1 µg/mL | COCCN(C)c1ncc(Oc2ncccc2-c2cccc3c2OCC3)cn1 [I-450]
15 | ≤ 0.1 µg/mL | ≤ 0.1 µg/mL | COc1cc(F)ccc1-c1cccnc1Oc1ccc(C(F)(F)F)nc1 [I-12, 3-(4-fluoro-2-methoxyphenyl)-2-{[6-(trifluoromethyl)pyridin-3-yl]oxy}pyridine]
16 | ≤ 0.1 µg/mL | ≤ 0.1 µg/mL | COc1cc(F)ccc1-c1cncnc1Oc1ccc(C(C)(F)F)nc1 [I-359, 4-{[6-(1,1-difluoroethyl)pyridin-3-yl]oxy}-5-(4-fluoro-2-methoxyphenyl)pyrimidine]
17 | ≤ 0.1 µg/mL | ≤ 0.1 µg/mL | COc1cccc(-c2cccnc2Oc2ccc(C(F)(F)F)nc2)c1 [I-2, 3-(3-methoxyphenyl)-2-{[6-(trifluoromethyl)pyridin-3-yl]oxy}pyridine]
18 | ≤ 0.1 µg/mL | ≤ 0.1 µg/mL | Cn1ncc(Cl)c1-c1cccnc1Oc1ccc(C(F)(F)F)cc1 [I-222, 3-(4-chloro-1-methyl-1H-pyrazol-5-yl)-2-[4-(trifluoromethyl)phenoxy]pyridine]

Row | MIC [1] | MIC [2] | SMILES
19 | ≤ 0.1 µg/mL | ≤ 0.1 µg/mL | COc1ccccc1-c1cccnc1Oc1ccc(C(F)(F)F)nc1 [I-1, 3-(2-methoxyphenyl)-2-{[6-(trifluoromethyl)pyridin-3-yl]oxy}pyridine]
20 | ≤ 0.1 µg/mL | ≤ 0.1 µg/mL | Cc1ccncc1-c1cccnc1Oc1ccc(C(F)(F)F)cc1 [I-206, 4′-methyl-2-[4-(trifluoromethyl)phenoxy]-3,3′-bipyridine]
21 | ≤ 0.1 µg/mL | ≤ 0.1 µg/mL | COCC(F)(F)c1ccc(Oc2ncccc2-c2cc(F)ccc2OC)cn1 [I-162, 2-{[6-(1,1-difluoro-2-methoxyethyl)pyridin-3-yl]oxy}-3-(5-fluoro-2-methoxyphenyl)pyridine]
22 | ≤ 0.1 µg/mL | ≤ 0.1 µg/mL | CCc1ccc(Oc2ncccc2-c2cncnc2OC)cc1 [I-282, 5-[2-(4-ethylphenoxy)pyridin-3-yl]-4-methoxypyrimidine]
23 | ≤ 0.1 µg/mL | ≤ 0.1 µg/mL | CCc1ccc(Oc2ncccc2-c2cccc3ccnn23)cc1 [I-292, 7-[2-(4-ethylphenoxy)pyridin-3-yl]pyrazolo[1,5-a]pyridine]
24 | 0.2 to 0.78 µg/mL (≈ 0.466 to 1.82 µM) | 0.2 to 0.78 µg/mL (≈ 0.466 to 1.82 µM) | COC(=O)N(C)CC(F)(F)c1ccc(Oc2ncccc2-c2ccccc2OC)cn1 [I-152, methyl [2,2-difluoro-2-(5-{[3-(2-methoxyphenyl)pyridin-2-yl]oxy}pyridin-2-yl)ethyl](methyl)carbamate]
25 | ≤ 0.1 µg/mL | ≤ 0.1 µg/mL | COc1ncccc1-c1cccnc1Oc1ccc(OC(F)F)cc1 [I-446]
26 | 0.2 to 0.78 µg/mL (≈ 0.561 to 2.19 µM) | 0.2 to 0.78 µg/mL (≈ 0.561 to 2.19 µM) | FC(F)(F)c1ccc(Oc2ncccc2-c2cccc3ncnn23)cc1 [I-230, 5-{2-[4-(trifluoromethyl)phenoxy]pyridin-3-yl}[1,2,4]triazolo[1,5-a]pyridine]
27 | ≤ 0.1 µg/mL | ≤ 0.1 µg/mL | COc1ccccc1-c1cccnc1Oc1cnc(C(F)(F)F)nc1 [I-178]
28 | ≤ 0.1 µg/mL | ≤ 0.1 µg/mL | C=Cc1ccc(Oc2ncccc2-c2cnccc2OC)cc1 [I-258, 4′-methoxy-2-(4-vinylphenoxy)-3,3′-bipyridine]
29 | 0.2 to 0.78 µg/mL (≈ 0.684 to 2.67 µM) | 0.2 to 0.78 µg/mL (≈ 0.684 to 2.67 µM) | COc1ccncc1-c1cccnc1Oc1ccc(C)cc1 [I-252, 4′-methoxy-2-(p-tolyloxy)-3,3′-bipyridine]
30 | ≤ 0.1 µg/mL | ≤ 0.1 µg/mL | Fc1cc2c(c(-c3cccnc3Oc3ccc(C(F)(F)F)nc3)c1)OCC2 [I-41, 3-(5-fluoro-2,3-dihydrobenzofuran-7-yl)-2-{[6-(trifluoromethyl)pyridin-3-yl]oxy}pyridine]
31 | 0.2 to 0.78 µg/mL (≈ 0.583 to 2.27 µM) | 0.2 to 0.78 µg/mL (≈ 0.583 to 2.27 µM) | COc1ccncc1-c1cccnc1Oc1ccc(C(C)(F)F)nc1 [I-90, 2-{[6-(1,1-difluoroethyl)pyridin-3-yl]oxy}-4′-methoxy-3,3′-bipyridine]
32 | 0.2 to 0.78 µg/mL (≈ 0.557 to 2.17 µM) | 1.56 to 6.25 µg/mL (≈ 4.34 to 17.4 µM) | CN(C)c1ccccc1-c1cccnc1Oc1ccc(C(F)(F)F)nc1 [I-62, N,N-dimethyl-2-(2-{[6-(trifluoromethyl)pyridin-3-yl]oxy}pyridin-3-yl)-aniline]
33 | ≤ 0.1 µg/mL | ≤ 0.1 µg/mL | COc1ccccc1-c1cccnc1Oc1ccc(C(F)(F)CN(C)OC)nc1 [I-150, N-[2,2-difluoro-2-(5-{[3-(2-methoxyphenyl)pyridin-2-yl]oxy}pyridin-2-yl)ethyl]-N,O-dimethylhydroxylamine]
34 | ≤ 0.1 µg/mL | ≤ 0.1 µg/mL | COc1ccccc1-c1cccnc1Oc1cnc(N(C)Cc2ccccc2)nc1 [I-339, N-benzyl-5-{[3-(2-methoxyphenyl)pyridin-2-yl]oxy}-N-methylpyrimidin-2-amine]
35 | ≤ 0.1 µg/mL | ≤ 0.1 µg/mL | CCc1ccc(Oc2ncccc2-c2cnccc2OC)c(F)c1 [I-394, 2-(4-ethyl-2-fluorophenoxy)-4′-methoxy-3,3′-bipyridine]
